Test results from PubChem BioAssay (NCI).
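Tested at 5 concentrations; 48 h exposure; 96-well plates; endpoints linearly interpolated, else capped at highest concentration. Definition used: TGI = concentration required for complete inhibition of growth.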

Key:
Test in all cases: NCI-60 cell line screen, 48 h
[1] = system: M14 melanoma
[2] = system: NCI-H226 lung
[3] = system: SK-MEL-2 melanoma
[4] = system: NCI/ADR-RES ovarian
[5] = system: SNB-19 CNS
[6] = system: MALME-3M melanoma
[7] = system: SK-MEL-5 melanoma
[8] = system: OVCAR-3 ovarian
[9] = system: UACC-62 melanoma
[10] = system: RXF 393 renal

| SMILES | TGI [1] [µM] | TGI [2] [µM] | TGI [3] [µM] | TGI [4] [µM] | TGI [5] [µM] | TGI [6] [µM] | TGI [7] [µM] | TGI [8] [µM] | TGI [9] [µM] | TGI [10] [µM] |
| --- | --- | --- | --- | --- | --- | --- | --- | --- | --- | --- |
| O=C1CC2CCC(C1)S2=O (stereo not given) | > 100 | > 100 | > 100 | > 100 | > 100 | > 100 | > 100 | > 100 | > 100 | > 100 |
| c1ccc(CN2CCN3CCN(CC2)CCN(Cc2ccccc2)CC3)cc1 | 19.6 | 19.1 | 8.06 | > 100 | 18.7 | 8.01 | 4.96 | 24.5 | 14.9 | 21.3 |
| Fc1cc(-c2cc(-c3ccc4c(c3)OCO4)n[nH]2)c(Cl)cc1Cl | 18.3 | 5.7 | 36.5 | 12.4 | 12.9 | 24.8 | 21 | 5.33 | 3.8 | 4.45 |
| Cc1ccc(NC(=O)CSC(N)=O)cc1C | > 100 | > 100 | > 100 | > 100 | > 100 | > 100 | > 100 | > 100 | > 100 | > 100 |
| CN(C)CCCNCc1cccc2ccccc12 | > 100 | > 100 | > 100 | > 100 | > 100 | > 100 | > 100 | > 100 | > 100 | > 100 |
| CC1(C)CCc2c(c(N=Nc3ccc(F)cc3)c3ccccc3c2O)O1 | 39.9 | > 100 | 93 | > 100 | > 100 | 68.5 | 21.1 | 70.8 | 31.3 | > 100 |
| Oc1cc(Br)cc2cc(Cl)cnc12 | 10.4 | 64.4 | 95.9 | 10 | > 100 | 30 | 15.4 | 11.2 | 6.1 | 15.2 |
